# Results published in ChEMBL document CHEMBL1201862, “PubChem BioAssay data set” (2004).
# The source made the active and inactive calls.
# How the values were obtained:
# [1] = molecular target: Mitogen-activated protein kinase kinase kinase kinase 4 (Homo sapiens, UniProt O95819); assay type: functional
# [2] = molecular target: MAP kinase-interacting serine/threonine-protein kinase 2 (Homo sapiens, UniProt Q9HBH9); assay type: functional
# [3] = molecular target: Tyrosine-protein kinase SYK (Homo sapiens, UniProt P43405); assay type: functional
# [4] = molecular target: RAC-gamma serine/threonine-protein kinase (Homo sapiens, UniProt Q9Y243); assay type: functional
# Chain of RAC-gamma serine/threonine-protein kinase (Q9Y243 whole entry): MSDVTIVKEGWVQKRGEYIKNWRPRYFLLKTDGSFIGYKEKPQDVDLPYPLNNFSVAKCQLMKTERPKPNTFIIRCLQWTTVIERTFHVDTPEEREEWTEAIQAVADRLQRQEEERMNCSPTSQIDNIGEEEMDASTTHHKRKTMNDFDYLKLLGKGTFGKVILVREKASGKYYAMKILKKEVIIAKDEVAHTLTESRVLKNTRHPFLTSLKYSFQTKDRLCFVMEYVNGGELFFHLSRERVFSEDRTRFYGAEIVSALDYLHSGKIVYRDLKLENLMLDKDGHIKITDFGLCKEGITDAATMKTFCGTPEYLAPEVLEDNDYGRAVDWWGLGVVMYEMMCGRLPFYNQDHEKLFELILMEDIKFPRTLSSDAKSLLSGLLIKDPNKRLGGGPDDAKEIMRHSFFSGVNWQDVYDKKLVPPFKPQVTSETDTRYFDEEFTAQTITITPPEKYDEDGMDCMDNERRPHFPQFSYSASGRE
# [5] = molecular target: Serine/threonine-protein kinase DCLK1 (Homo sapiens, UniProt O15075); assay type: functional;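 note: affinity for DCLK1 (listed as DCAMKL1) measured as one member of a kinome-wide kinase profiling panel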
# Chain of Serine/threonine-protein kinase DCLK1 (O15075 whole entry): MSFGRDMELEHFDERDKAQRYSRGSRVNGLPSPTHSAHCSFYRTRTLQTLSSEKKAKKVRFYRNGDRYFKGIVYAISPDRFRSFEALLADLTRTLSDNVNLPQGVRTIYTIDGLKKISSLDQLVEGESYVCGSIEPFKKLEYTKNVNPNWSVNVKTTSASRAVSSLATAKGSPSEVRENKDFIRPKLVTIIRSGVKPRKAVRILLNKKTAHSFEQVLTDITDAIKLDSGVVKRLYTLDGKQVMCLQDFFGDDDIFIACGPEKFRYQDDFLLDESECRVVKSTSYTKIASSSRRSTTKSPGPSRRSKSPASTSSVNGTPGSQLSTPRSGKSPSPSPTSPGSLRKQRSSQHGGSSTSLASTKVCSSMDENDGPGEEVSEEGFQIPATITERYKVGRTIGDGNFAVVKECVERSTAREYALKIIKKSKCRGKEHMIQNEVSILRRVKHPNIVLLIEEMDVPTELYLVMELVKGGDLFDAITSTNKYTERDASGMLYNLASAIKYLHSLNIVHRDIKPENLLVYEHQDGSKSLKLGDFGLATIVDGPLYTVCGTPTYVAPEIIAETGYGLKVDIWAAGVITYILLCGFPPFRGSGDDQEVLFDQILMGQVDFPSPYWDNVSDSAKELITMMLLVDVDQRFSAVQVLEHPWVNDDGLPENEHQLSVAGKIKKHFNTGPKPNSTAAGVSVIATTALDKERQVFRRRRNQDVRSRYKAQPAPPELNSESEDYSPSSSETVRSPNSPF
# [6] = molecular target: Tyrosine-protein kinase receptor TYRO3 (Homo sapiens, UniProt Q06418); assay type: functional;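 note: TYRO3 value obtained as one member of a kinome-wide profiling panel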
# Chain of Tyrosine-protein kinase receptor TYRO3 (Q06418 whole entry): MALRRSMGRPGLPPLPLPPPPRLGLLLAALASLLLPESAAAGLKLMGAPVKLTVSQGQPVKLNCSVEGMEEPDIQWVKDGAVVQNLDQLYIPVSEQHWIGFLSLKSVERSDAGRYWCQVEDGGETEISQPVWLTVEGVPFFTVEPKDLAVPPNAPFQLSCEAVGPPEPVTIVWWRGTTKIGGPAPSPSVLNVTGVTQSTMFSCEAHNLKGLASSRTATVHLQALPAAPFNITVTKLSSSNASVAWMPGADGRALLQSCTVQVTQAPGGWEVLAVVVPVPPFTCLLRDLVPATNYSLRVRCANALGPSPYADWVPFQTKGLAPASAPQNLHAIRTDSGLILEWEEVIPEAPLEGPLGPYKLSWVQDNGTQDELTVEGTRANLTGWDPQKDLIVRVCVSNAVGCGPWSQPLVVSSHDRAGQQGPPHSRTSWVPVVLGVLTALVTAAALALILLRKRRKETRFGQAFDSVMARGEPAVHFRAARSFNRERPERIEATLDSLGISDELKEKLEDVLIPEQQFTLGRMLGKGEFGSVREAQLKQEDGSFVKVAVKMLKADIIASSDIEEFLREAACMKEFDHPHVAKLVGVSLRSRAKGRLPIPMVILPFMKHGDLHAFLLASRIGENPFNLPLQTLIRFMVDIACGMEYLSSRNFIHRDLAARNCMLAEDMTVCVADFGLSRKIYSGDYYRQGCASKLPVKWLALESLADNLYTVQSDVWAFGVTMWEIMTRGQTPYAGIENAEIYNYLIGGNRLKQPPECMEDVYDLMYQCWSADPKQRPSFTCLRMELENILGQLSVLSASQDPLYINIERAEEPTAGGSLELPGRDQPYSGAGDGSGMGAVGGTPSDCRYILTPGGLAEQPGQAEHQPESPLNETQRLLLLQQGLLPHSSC
# [7] = molecular target: Focal adhesion kinase 1 (Homo sapiens, UniProt Q05397); assay type: functional;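 note: measured as one member of a kinome panel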
# [8] = molecular target: Casein kinase I isoform gamma-1 (Homo sapiens, UniProt Q9HCP0); assay type: functional;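 note: measured as the CSNK1G1 member of a kinome profiling panel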
# Chain of Casein kinase I isoform gamma-1 (Q9HCP0 whole entry, canonical isoform): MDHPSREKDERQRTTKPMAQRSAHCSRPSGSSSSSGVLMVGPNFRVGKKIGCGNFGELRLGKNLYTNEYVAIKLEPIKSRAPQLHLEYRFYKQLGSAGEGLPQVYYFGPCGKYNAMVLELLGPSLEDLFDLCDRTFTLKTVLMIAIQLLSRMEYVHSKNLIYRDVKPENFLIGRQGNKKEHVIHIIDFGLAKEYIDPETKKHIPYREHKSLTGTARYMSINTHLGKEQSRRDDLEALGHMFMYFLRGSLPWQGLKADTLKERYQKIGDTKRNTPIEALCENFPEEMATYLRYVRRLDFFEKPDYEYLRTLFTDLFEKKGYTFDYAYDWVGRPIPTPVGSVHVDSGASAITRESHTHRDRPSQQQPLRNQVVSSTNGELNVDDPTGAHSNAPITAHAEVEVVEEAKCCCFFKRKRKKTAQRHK
# [9] = molecular target: Cyclin-dependent kinase 19 (Homo sapiens, UniProt Q9BWU1); test: Navigating the Kinome. Panel member name: CDC2L6; assay type: functional
# [10] = molecular target: Cyclin-dependent kinase 5 (Homo sapiens, UniProt Q00535); assay type: functional;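 note: CDK5 measured as one member of a kinase profiling panel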
# Chain of Cyclin-dependent kinase 5 (Q00535 whole entry): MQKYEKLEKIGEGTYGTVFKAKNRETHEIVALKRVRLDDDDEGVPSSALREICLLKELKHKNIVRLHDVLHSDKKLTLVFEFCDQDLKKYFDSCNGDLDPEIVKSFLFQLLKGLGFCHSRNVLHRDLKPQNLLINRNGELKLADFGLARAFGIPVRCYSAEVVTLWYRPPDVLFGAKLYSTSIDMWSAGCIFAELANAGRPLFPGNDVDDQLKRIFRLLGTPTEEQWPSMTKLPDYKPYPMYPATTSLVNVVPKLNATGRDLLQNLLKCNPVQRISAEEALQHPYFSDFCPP
# [11] = molecular target: DNA dC->dU-editing enzyme APOBEC-3G (Homo sapiens, UniProt Q9HC16); test: Dose Response confirmation of small molecule APOBEC3G DNA Deaminase Inhibitors via a fluorescence-based single-stranded DNA deaminase assay. [Related pubchem assays (depositor defined):AID493012, AID493028]; assay type: functional
# Chain of DNA dC->dU-editing enzyme APOBEC-3G (Q9HC16 whole entry): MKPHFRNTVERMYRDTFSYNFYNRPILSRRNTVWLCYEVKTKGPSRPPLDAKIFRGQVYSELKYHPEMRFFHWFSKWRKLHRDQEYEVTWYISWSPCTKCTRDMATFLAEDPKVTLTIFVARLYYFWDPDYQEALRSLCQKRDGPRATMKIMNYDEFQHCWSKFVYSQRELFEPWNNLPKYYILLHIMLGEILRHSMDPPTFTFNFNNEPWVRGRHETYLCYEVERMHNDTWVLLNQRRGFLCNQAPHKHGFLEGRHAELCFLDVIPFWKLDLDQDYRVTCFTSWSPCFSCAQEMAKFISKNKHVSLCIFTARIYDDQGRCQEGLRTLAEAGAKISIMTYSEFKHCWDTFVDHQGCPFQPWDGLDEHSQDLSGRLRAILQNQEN
# [12] = THP-1 cell cytotoxicity, dose response, cytotoxicity control for non-replicating M. tuberculosis project (AID 489025); assay type: functional
# [13] = molecular target: ORF 73 (Human herpesvirus 8, UniProt O40947); test: KSHV LANA DNA-binding disruption – biochemical, fluorescence polarization, cherry-picked samples, dose response (AID 504725); design: species or system Human gammaherpesvirus 8;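 note: fluorescence polarization of a labeled DNA duplex reporting LANA DNA binding; potency is for inhibitors that block LANA binding to the DNA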
# [14] = molecular target: T1, Apoptotic protease-activating factor 1 (Homo sapiens, UniProt O14727); assay type: functional
# T1 sequence (O14727 whole entry): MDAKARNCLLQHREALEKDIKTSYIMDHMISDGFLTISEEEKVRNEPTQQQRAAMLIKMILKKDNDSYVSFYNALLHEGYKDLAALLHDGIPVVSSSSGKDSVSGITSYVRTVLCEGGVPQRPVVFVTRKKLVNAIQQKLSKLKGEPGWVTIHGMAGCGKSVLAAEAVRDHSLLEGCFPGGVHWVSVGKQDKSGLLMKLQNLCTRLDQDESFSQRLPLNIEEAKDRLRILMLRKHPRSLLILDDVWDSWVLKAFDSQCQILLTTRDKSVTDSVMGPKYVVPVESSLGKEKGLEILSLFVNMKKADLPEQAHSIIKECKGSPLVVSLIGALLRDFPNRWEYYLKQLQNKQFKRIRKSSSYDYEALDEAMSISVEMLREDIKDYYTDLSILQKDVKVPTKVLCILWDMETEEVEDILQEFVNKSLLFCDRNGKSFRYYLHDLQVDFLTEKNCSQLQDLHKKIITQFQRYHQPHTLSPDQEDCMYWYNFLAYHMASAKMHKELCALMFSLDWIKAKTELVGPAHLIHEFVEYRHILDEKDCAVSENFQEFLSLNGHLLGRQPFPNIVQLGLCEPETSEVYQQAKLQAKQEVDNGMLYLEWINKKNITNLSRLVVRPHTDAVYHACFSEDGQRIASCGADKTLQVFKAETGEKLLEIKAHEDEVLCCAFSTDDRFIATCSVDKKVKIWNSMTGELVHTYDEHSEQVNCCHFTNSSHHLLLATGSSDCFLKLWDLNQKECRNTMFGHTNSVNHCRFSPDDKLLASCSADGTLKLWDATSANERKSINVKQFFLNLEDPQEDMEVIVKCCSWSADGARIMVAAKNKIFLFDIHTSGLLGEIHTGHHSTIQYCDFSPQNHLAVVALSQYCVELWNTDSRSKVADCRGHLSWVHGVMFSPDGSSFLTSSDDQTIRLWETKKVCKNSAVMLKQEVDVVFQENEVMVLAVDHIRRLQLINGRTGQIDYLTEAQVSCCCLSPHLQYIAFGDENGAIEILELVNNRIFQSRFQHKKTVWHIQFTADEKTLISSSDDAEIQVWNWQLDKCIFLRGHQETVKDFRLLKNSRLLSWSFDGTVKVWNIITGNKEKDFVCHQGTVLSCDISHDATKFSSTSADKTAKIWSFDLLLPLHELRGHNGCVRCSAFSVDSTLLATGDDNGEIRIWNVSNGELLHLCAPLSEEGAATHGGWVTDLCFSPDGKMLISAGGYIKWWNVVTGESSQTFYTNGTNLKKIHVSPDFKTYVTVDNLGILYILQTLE
# [15] = molecular target: Serine/threonine-protein phosphatase (Candida dubliniensis (strain CD36 / CBS 7987 / NCPF 3949 / NRRLY-17841) (Yeast), UniProt B9W6M3); test: blockers of CaCl2-induced CDRE-lacZ signaling – S. cerevisiae, luminescence, secondary, dose response (AID 2388); assay type: functional, cell-based;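 note: yeast reporter cells carrying a calcineurin-responsive lacZ construct stimulated with calcium chloride; luminescent beta-galactosidase reporter signal in whole cells rather than isolated phosphatase activity; potency for inhibition where a drop in reporter signal means calcineurin blockade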
# Chain of Mitogen-activated protein kinase kinase kinase kinase 4 (O95819 whole entry): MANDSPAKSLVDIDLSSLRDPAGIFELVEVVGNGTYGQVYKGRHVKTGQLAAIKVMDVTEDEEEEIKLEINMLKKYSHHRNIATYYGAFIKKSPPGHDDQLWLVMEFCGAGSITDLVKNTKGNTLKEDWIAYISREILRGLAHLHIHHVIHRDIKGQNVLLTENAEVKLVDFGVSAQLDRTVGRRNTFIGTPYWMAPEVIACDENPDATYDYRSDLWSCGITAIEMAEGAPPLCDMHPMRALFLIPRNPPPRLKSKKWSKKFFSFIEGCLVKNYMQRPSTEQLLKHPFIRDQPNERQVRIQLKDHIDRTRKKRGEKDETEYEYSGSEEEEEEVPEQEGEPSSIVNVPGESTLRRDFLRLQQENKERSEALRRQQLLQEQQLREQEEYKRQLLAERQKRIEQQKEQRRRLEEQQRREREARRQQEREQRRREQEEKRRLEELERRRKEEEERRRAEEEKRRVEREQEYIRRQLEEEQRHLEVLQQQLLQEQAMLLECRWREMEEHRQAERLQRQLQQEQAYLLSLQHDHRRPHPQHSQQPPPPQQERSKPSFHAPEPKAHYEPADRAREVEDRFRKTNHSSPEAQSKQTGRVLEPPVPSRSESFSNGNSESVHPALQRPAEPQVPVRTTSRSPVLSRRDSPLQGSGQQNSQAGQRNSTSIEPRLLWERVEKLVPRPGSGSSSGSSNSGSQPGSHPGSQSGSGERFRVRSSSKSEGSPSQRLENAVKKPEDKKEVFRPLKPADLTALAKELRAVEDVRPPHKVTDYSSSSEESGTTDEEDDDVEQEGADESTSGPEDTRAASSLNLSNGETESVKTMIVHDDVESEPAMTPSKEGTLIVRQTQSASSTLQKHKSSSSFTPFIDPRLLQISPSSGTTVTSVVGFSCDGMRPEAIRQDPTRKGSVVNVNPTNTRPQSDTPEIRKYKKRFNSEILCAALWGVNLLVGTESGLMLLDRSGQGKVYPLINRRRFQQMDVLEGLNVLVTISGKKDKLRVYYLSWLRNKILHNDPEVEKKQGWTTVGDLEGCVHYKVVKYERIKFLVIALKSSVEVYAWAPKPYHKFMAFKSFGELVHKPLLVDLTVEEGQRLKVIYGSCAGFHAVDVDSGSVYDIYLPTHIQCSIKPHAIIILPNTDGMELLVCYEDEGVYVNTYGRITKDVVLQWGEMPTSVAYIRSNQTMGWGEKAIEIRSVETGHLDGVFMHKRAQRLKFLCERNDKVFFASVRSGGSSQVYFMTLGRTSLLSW
# Chain of MAP kinase-interacting serine/threonine-protein kinase 2 (Q9HBH9 whole entry): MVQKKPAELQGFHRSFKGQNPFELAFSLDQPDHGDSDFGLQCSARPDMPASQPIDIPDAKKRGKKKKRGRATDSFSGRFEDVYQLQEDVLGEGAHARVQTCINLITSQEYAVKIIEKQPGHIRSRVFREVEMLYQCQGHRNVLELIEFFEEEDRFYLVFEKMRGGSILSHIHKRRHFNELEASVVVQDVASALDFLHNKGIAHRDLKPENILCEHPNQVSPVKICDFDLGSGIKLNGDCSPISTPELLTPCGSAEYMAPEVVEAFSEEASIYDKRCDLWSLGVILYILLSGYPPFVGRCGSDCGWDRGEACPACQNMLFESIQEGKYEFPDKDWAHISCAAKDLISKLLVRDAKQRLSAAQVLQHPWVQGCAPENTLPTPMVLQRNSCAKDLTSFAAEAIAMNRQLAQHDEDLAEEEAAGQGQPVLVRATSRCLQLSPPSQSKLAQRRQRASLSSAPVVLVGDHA
compound,measurement,setting,value
Cc1cccc(NC(=O)Nc2ccc3c(c2)CCc2sc4ncnc(N)c4c2-3)c1,Ki,[1],2.51 µM (active)
same,Ki,[2],0.0794 µM (active)
same,Ki,[3],1.58 µM (active)
same,Ki,[4],> 10 µM (inactive)
same,Ki,[5],> 10 µM (inactive)
same,Ki,[6],> 2 µM (inactive)
same,Ki,[7],0.631 µM (active)
same,Ki,[8],2.51 µM (active)
same,Ki,[9],> 100 µM (inactive)
same,Ki,[10],> 10 µM (inactive)
Cc1ccc(-n2sc3ccccc3c2=O)cc1,IC50,[11],18.2 µM (active)
same,CC50,[12],18.6 µM (active)
N/C(=N\N=C/c1ccc(-c2ccc(O)c(C(=O)O)c2)o1)N[N+](=O)[O-],AC50,[13],111 µM (active)
CC(=O)N(/N=C1\Sc2ccccc2C1=O)c1ccccc1C,IC50,[14],5.13 µM (active)
CCCC(=O)NC(c1ccc(Cl)cc1)c1ccc2cccnc2c1O (stereo not given),EC50,[15],45.4 µM (active)
